The subject of assay [1] is HEL. Kind of assay: Cytotoxic concentration required to inhibit HEL cell growth by 50 %. It counts as functional. The following applies: Homo sapiens.
Assay [2] has as its system HEL. Kind of assay: Minimum cytotoxic concentration required to alter microscopically detectable HEL cell morphology. It counts as functional. The following applies: Homo sapiens.
Assay [3] concerns Human alphaherpesvirus 3. Kind of assay: Effective concentration required for reduction of plaque formation of thymidine kinase deficient Varicella-Zoster Virus (YSR strain). It counts as functional, organism-based.
For assay [4], the system named is Human alphaherpesvirus 3. Kind of assay: Effective concentration required for reduction of plaque formation of Varicella-Zoster Virus (OKA strain). The format is functional, organism-based.
In assay [5] the test system is Human alphaherpesvirus 3. The experiment in a line: Effective concentration required for reduction of plaque formation of Varicella-Zoster Virus, (YS strain). It counts as functional, organism-based.
Assay [6] deals with Human alphaherpesvirus 3. Kind of assay: Effective concentration required for reduction of plaque formation of thymidine kinase deficient Varicella-Zoster Virus (071 strain). The format is functional, organism-based.

By CC50 is commonly meant the concentration giving 50% cytotoxicity. Read a low CC50 as greater toxicity to the cells. In turn, `CCCCCCCCCCc1cc2cn([C@H]3C[C@H](O)[C@@H](CO)O3)c(=O)nc2o1` had a CC50 in the assay on HEL [1] greater than 50 µM.

Regarding `CCCCCCCCc1cc2cn([C@H]3C[C@H](O)[C@@H](CO)O3)c(=O)nc2o1`, the CC50 in the assay on HEL [1] is greater than 50 µM.

On to `CCCCCCc1cc2cn([C@H]3C[C@H](O)[C@@H](CO)O3)c(=O)nc2o1`, for which the MCC in the assay on HEL [2] is greater than 50 µM. In addition, the CC50 with HEL [1] was greater than 200 µM.

Compound `CCCCCCCc1cc2cn([C@H]3C[C@H](O)[C@@H](CO)O3)c(=O)nc2o1` showed a CC50 with HEL [1] greater than 50 µM.

One may read the EC50 as the concentration at which the effect is half-maximal. In turn, `C#CCCCCCCc1cc2cn([C@H]3C[C@H](O)[C@@H](CO)O3)c(=O)nc2o1` had an MCC in the assay on HEL [2] greater than 200 µM. The EC50 is greater than 200 µM with Human alphaherpesvirus 3 [3], 5 µM with Human alphaherpesvirus 3 [4], 4 µM with Human alphaherpesvirus 3 [5] and greater than 200 µM in the assay with Human alphaherpesvirus 3 [6]. The compound further had a 50% cytotoxic concentration (CC50) in the assay on HEL [1] greater than 200 µM.

Take `C#CCCCCCc1cc2cn([C@H]3C[C@H](O)[C@@H](CO)O3)c(=O)nc2o1`: the MCC in the assay on HEL [2] is greater than 200 µM. Further, the EC50 is greater than 200 µM with Human alphaherpesvirus 3 [3], 79 µM in the assay with Human alphaherpesvirus 3 [4], 37 µM in the assay on Human alphaherpesvirus 3 [5] and greater than 200 µM with Human alphaherpesvirus 3 [6]. The CC50 with HEL [1] was greater than 200 µM.

In turn, `C=CCCCCc1cc2cn([C@H]3C[C@H](O)[C@@H](CO)O3)c(=O)nc2o1` registered an MCC with HEL [2] greater than 200 µM. Further, the 50% effective concentration (EC50) was greater than 200 µM with Human alphaherpesvirus 3 [3], 14 µM in the assay with Human alphaherpesvirus 3 [4], 13 µM with Human alphaherpesvirus 3 [5] and greater than 200 µM in the assay with Human alphaherpesvirus 3 [6]. Also, the half-maximal cytotoxic concentration (CC50) with HEL [1] was greater than 200 µM.

Compound `C=CCCCCCCc1cc2cn([C@H]3C[C@H](O)[C@@H](CO)O3)c(=O)nc2o1` showed an MCC in the assay with HEL [2] greater than 200 µM. Besides, the EC50 is greater than 50 µM in the assay on Human alphaherpesvirus 3 [3], 0.27 µM in the assay with Human alphaherpesvirus 3 [4], 0.06 µM in the assay with Human alphaherpesvirus 3 [5] and greater than 200 µM in the assay on Human alphaherpesvirus 3 [6]. Further, the CC50 with HEL [1] is greater than 200 µM.

Consider `C=CCCCc1cc2cn([C@H]3C[C@H](O)[C@@H](CO)O3)c(=O)nc2o1`, for which the MCC in the assay on HEL [2] is greater than 200 µM. In addition, the EC50 in the assay on Human alphaherpesvirus 3 [3], with Human alphaherpesvirus 3 [4], with Human alphaherpesvirus 3 [5] and in the assay with Human alphaherpesvirus 3 [6] was greater than 200 µM in each case. Besides, the CC50 in the assay on HEL [1] was greater than 200 µM.

In the assay on HEL [1], `CCCCCc1cc2cn([C@H]3C[C@H](O)[C@@H](CO)O3)c(=O)nc2o1` showed a CC50 greater than 50 µM.

Compound `C=CCCCCCCCCc1cc2cn([C@H]3C[C@H](O)[C@@H](CO)O3)c(=O)nc2o1` gave an MCC in the assay on HEL [2] greater than 50 µM. Also, the EC50 in the assay on Human alphaherpesvirus 3 [3] is greater than 200 µM; with Human alphaherpesvirus 3 [4] it was 0.09 µM; in the assay with Human alphaherpesvirus 3 [5], 0.1 µM; in the assay on Human alphaherpesvirus 3 [6], greater than 200 µM. In the assay with HEL [1], this compound yielded a CC50 greater than 200 µM.

`C#CCCCc1cc2cn([C@H]3C[C@H](O)[C@@H](CO)O3)c(=O)nc2o1` gave an MCC with HEL [2] greater than 200 µM. In addition, the EC50 is greater than 200 µM in the assay on Human alphaherpesvirus 3 [3], 8 µM in the assay with Human alphaherpesvirus 3 [4], 10 µM in the assay with Human alphaherpesvirus 3 [5] and greater than 200 µM with Human alphaherpesvirus 3 [6]. Also, the CC50 in the assay with HEL [1] is greater than 200 µM.

Compound `C#CCCCCc1cc2cn([C@H]3C[C@H](O)[C@@H](CO)O3)c(=O)nc2o1` had an MCC in the assay with HEL [2] greater than 200 µM. The EC50 with Human alphaherpesvirus 3 [3] was greater than 200 µM; with Human alphaherpesvirus 3 [4], 25 µM; in the assay with Human alphaherpesvirus 3 [5], 33 µM; with Human alphaherpesvirus 3 [6] it was greater than 200 µM. Moreover, the CC50 in the assay on HEL [1] was greater than 200 µM.

Regarding `Nc1nc2c(ncn2COCCO)c(=O)[nH]1` [ACYCLOVIR], the cytotoxic concentration (CC50) with HEL [1] is greater than 200 µM. The same compound displayed an EC50 in the assay with Human alphaherpesvirus 3 [6] greater than 4 µM.
